Assay results from ChEMBL document CHEMBL1201862, “PubChem BioAssay data set” (2004).
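All cell lines were grown in 96-well plates and treated with compound for 48 hours. GI50 is the concentration that inhibits growth by half.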 The source made the active and inactive calls. No stated cut-off is given here; in the data, active = GI50 up to about 1.1 µM and inactive = higher.

Assays:
Assay in all cases: growth of human tumour cells (NCI), 48 h
786-0 = tested on: 786-0
A498 = tested on: A498
A549 = tested on: A549
ACHN = tested on: ACHN
BT-549 = tested on: BT-549
CAKI-1 = tested on: CAKI-1
CCRF-CEM = tested on: CCRF-CEM
COLO 205 = tested on: COLO 205
DU-145 = tested on: DU-145
EKVX = tested on: EKVX
HCC 2998 = tested on: HCC 2998
HCT-116 = tested on: HCT-116
HCT-15 = tested on: HCT-15
HL-60 = tested on: HL-60
HOP-62 = tested on: HOP-62
HOP-92 = tested on: HOP-92
HT-29 = tested on: HT-29
Hs-578T = tested on: Hs-578T
IGROV-1 = tested on: IGROV-1
K562 = tested on: K562
KM12 = tested on: KM12
LOX IMVI = tested on: LOX IMVI
M14 = tested on: M14
MCF7 = tested on: MCF7
MDA-MB-231 = tested on: MDA-MB-231
MDA-MB-435 = tested on: MDA-MB-435
MDA-N = tested on: MDA-N
MOLT-4 = tested on: MOLT-4
Malme-3M = tested on: Malme-3M
NCI-H23 = tested on: NCI-H23
NCI-H460 = tested on: NCI-H460
NCI-H522 = tested on: NCI-H522
NCI/ADR-RES = tested on: NCI/ADR-RES
OVCAR-4 = tested on: OVCAR-4
OVCAR-5 = tested on: OVCAR-5
OVCAR-8 = tested on: OVCAR-8
PC-3 = tested on: PC-3
RPMI-8226 = tested on: RPMI-8226
SF-268 = tested on: SF-268
SF-295 = tested on: SF-295
SF-539 = tested on: SF-539
SK-MEL-2 = tested on: SK-MEL-2
SK-MEL-5 = tested on: SK-MEL-5
SK-OV-3 = tested on: SK-OV-3
SN12C = tested on: SN12C
SNB-19 = tested on: SNB-19
SNB-75 = tested on: SNB-75
SR = tested on: SR
SW-620 = tested on: SW-620
T47D = tested on: T47D
TK-10 = tested on: TK-10
U-251 = tested on: U-251
UACC-62 = tested on: UACC-62
UO-31 = tested on: UO-31
NCI-H226 = tested on: NCI-H226
OVCAR-3 = tested on: OVCAR-3
RXF 393 = tested on: RXF 393
SK-MEL-28 = tested on: SK-MEL-28
UACC-257 = tested on: UACC-257

Question: Nc1nc(N)c2c(Cl)c(CNc3ccc(C(=O)NC(CC(=O)O)C(=O)O)cc3)ccc2n1 (stereo unspecified) was tested. Which GI50 (786-0) did it give?
Answer: < 0.01 µM (active)

Question: What about the GI50 (A498) of the same molecule?
Answer: < 0.01 µM (active)

Question: And the GI50 (A549)?
Answer: < 0.01 µM (active)

Question: What about the GI50 (ACHN) of the same molecule?
Answer: < 0.01 µM (active)

Question: What about the GI50 (BT-549) of the same molecule?
Answer: < 0.01 µM (active)

Question: What about the GI50 (CAKI-1) of the same molecule?
Answer: < 0.01 µM (active)

Question: What about the GI50 (CCRF-CEM) of the same molecule?
Answer: < 0.01 µM (active)

Question: What about the GI50 (COLO 205) of the same molecule?
Answer: < 0.01 µM (active)

Question: And the GI50 (DU-145)?
Answer: < 0.01 µM (active)

Question: And the GI50 (EKVX)?
Answer: < 0.01 µM (active)

Question: And the GI50 (HCC 2998)?
Answer: > 100 µM (inactive)

Question: What about the GI50 (HCT-116) of the same molecule?
Answer: 10.7 µM (inactive)

Question: And the GI50 (HCT-15)?
Answer: < 0.01 µM

Question: And the GI50 (HL-60)?
Answer: < 0.01 µM (active)

Question: What about the GI50 (HOP-62) of the same molecule?
Answer: < 0.027 µM (active)

Question: And the GI50 (HOP-92)?
Answer: 0.043 µM (active)

Question: And the GI50 (HT-29)?
Answer: < 0.01 µM (active)

Question: And the GI50 (Hs-578T)?
Answer: 22.8 µM (inactive)

Question: And the GI50 (IGROV-1)?
Answer: < 0.01 µM (active)

Question: And the GI50 (K562)?
Answer: < 0.01 µM (active)

Question: And the GI50 (KM12)?
Answer: < 0.01 µM (active)

Question: And the GI50 (LOX IMVI)?
Answer: < 0.01 µM (active)

Question: And the GI50 (M14)?
Answer: < 0.01 µM (active)

Question: And the GI50 (MCF7)?
Answer: < 0.01 µM (active)

Question: What about the GI50 (MDA-MB-231) of the same molecule?
Answer: > 100 µM (inactive)

Question: What about the GI50 (MDA-MB-435) of the same molecule?
Answer: < 0.01 µM (active)

Question: And the GI50 (MDA-N)?
Answer: < 0.01 µM (active)

Question: And the GI50 (MOLT-4)?
Answer: < 0.01 µM (active)

Question: What about the GI50 (Malme-3M) of the same molecule?
Answer: 17.7 µM (inactive)

Question: And the GI50 (NCI-H23)?
Answer: < 0.01 µM (active)

Question: And the GI50 (NCI-H460)?
Answer: < 0.01 µM (active)

Question: And the GI50 (NCI-H522)?
Answer: < 0.01 µM (active)

Question: What about the GI50 (NCI/ADR-RES) of the same molecule?
Answer: < 0.01 µM (active)

Question: And the GI50 (OVCAR-4)?
Answer: 3.69 µM (inactive)

Question: What about the GI50 (OVCAR-5) of the same molecule?
Answer: < 0.01 µM (active)

Question: What about the GI50 (OVCAR-8) of the same molecule?
Answer: < 0.01 µM (active)

Question: What about the GI50 (PC-3) of the same molecule?
Answer: 9.31 µM (inactive)

Question: What about the GI50 (RPMI-8226) of the same molecule?
Answer: < 0.01 µM (active)

Question: What about the GI50 (SF-268) of the same molecule?
Answer: < 0.01 µM (active)

Question: And the GI50 (SF-295)?
Answer: < 0.01 µM (active)

Question: What about the GI50 (SF-539) of the same molecule?
Answer: < 0.01 µM (active)

Question: And the GI50 (SK-MEL-2)?
Answer: > 100 µM (inactive)

Question: What about the GI50 (SK-MEL-5) of the same molecule?
Answer: < 0.01 µM (active)

Question: What about the GI50 (SK-OV-3) of the same molecule?
Answer: < 0.01 µM (active)

Question: And the GI50 (SN12C)?
Answer: < 0.01 µM (active)

Question: What about the GI50 (SNB-19) of the same molecule?
Answer: < 0.01 µM (active)

Question: And the GI50 (SNB-75)?
Answer: 8.87 µM (inactive)

Question: What about the GI50 (SR) of the same molecule?
Answer: < 0.01 µM (active)

Question: And the GI50 (SW-620)?
Answer: < 0.01 µM (active)

Question: And the GI50 (T47D)?
Answer: > 100 µM (inactive)

Question: And the GI50 (TK-10)?
Answer: < 0.01 µM (active)

Question: And the GI50 (U-251)?
Answer: < 0.01 µM (active)

Question: And the GI50 (UACC-62)?
Answer: < 0.01 µM (active)

Question: What about the GI50 (UO-31) of the same molecule?
Answer: < 0.01 µM (active)

Question: Which results are given for CC1(C)CCC2(C(=O)OC3OC(CO)C(O)C(O)C3O)CCC3(CO)C(=CCC4C5(C)CC(O)C(O)C(C)(C(=O)OC6OC(CO)C(O)C(O)C6O)C5CCC43C)C2C1 (stereo unspecified)?
Answer: GI50 (786-0): > 100 µM (inactive); GI50 (A498): > 100 µM (inactive); GI50 (A549): > 100 µM (inactive); GI50 (ACHN): > 100 µM (inactive); GI50 (BT-549): > 100 µM (inactive); GI50 (CAKI-1): > 100 µM (inactive); GI50 (COLO 205): > 100 µM (inactive); GI50 (DU-145): > 100 µM (inactive); GI50 (EKVX): > 100 µM (inactive); GI50 (HCC 2998): > 100 µM (inactive); GI50 (HCT-116): > 100 µM (inactive); GI50 (HCT-15): > 100 µM; GI50 (HL-60): 39 µM (inactive); GI50 (HOP-62): > 100 µM (inactive); GI50 (HOP-92): > 100 µM (inactive); GI50 (HT-29): > 100 µM (inactive); GI50 (Hs-578T): > 100 µM (inactive); GI50 (IGROV-1): > 100 µM (inactive); GI50 (K562): > 100 µM (inactive); GI50 (KM12): > 100 µM (inactive); GI50 (LOX IMVI): > 100 µM (inactive); GI50 (M14): > 100 µM (inactive); GI50 (MCF7): > 100 µM (inactive); GI50 (MDA-MB-231): > 100 µM (inactive); GI50 (MDA-MB-435): > 100 µM (inactive); GI50 (MDA-N): > 100 µM (inactive); GI50 (MOLT-4): > 100 µM (inactive); GI50 (Malme-3M): > 100 µM (inactive); GI50 (NCI-H226): > 100 µM (inactive); GI50 (NCI-H23): > 100 µM (inactive); GI50 (NCI-H460): > 100 µM (inactive); GI50 (NCI-H522): > 100 µM (inactive); GI50 (NCI/ADR-RES): > 100 µM (inactive); GI50 (OVCAR-3): > 100 µM (inactive); GI50 (OVCAR-4): > 100 µM (inactive); GI50 (OVCAR-5): > 100 µM (inactive); GI50 (OVCAR-8): > 100 µM (inactive); GI50 (PC-3): > 100 µM (inactive); GI50 (RXF 393): > 100 µM (inactive); GI50 (SF-268): > 100 µM (inactive); GI50 (SF-295): > 100 µM (inactive); GI50 (SF-539): > 100 µM (inactive); GI50 (SK-MEL-28): > 100 µM (inactive); GI50 (SK-MEL-2): > 100 µM (inactive); GI50 (SK-MEL-5): > 100 µM (inactive); GI50 (SK-OV-3): > 100 µM (inactive); GI50 (SN12C): > 100 µM (inactive); GI50 (SNB-19): > 100 µM (inactive); GI50 (SNB-75): > 100 µM (inactive); GI50 (SR): 44.8 µM (inactive); GI50 (SW-620): > 100 µM (inactive); GI50 (T47D): > 100 µM (inactive); GI50 (TK-10): > 100 µM (inactive); GI50 (U-251): > 100 µM (inactive); GI50 (UACC-257): > 100 µM (inactive); GI50 (UACC-62): > 100 µM (inactive); GI50 (UO-31): > 100 µM (inactive)
